In PMC10939774 (Antiviral research, 2024):

Assays:
HepG2.2.15-derived HBV = HepG2.2.15-derived HBV infection of HepG2-NTCP cells, HBsAg in culture medium; type: cell-based, hepatitis B virus; conditions: 10 μM, HBsAg on Day 12 post-infection
HBV genotype C = assay: HBV infection of human primary hepatocytes; type: cell-based, hepatitis B virus; conditions: 10 μM virus treatment; day 12 after infection; P < 0.0001 vs Ctn
HepG2.2.15 cells [1] = conditions: 10 μM, 7 days of culture
HepG2.2.15 cells [2] = assay: HBsAg production from HepG2.2.15 cells; type: cell-based, hepatitis B virus; conditions: 10 μM, 7 days of culture
HepG2-NTCP cells = assay: Cell viability by WST-8 assay in HepG2-NTCP cells; conditions: 10 μM, 7 days, absorbance 450 nm
HBV = conditions: patients; ref Bogomolov et al., 2016; cited from earlier work

Which “Effect on HBsAg level of pre-treatment of cells only” value (HepG2.2.15-derived HBV; HepG2-NTCP cells treated 24 hours before infection) does the source give for `CC[C@H](C)[C@H](NC(=O)[C@H](CCCCN)NC(=O)[C@H](CCC(=O)O)NC(=O)[C@H](CCCCN)NC(=O)[C@H](CO)NC(=O)[C@H](CCCCN)NC(=O)[C@H](CCCNC(=N)N)NC(=O)[C@H](Cc1ccccc1)NC(=O)[C@H](Cc1ccccc1)NC(=O)[C@H](CC(=O)O)NC(=O)CNC(=O)[C@H](CC(C)C)NC(=O)[C@@H](N)CC(C)C)C(=O)NCC(=O)N[C@@H](CCCCN)C(=O)N[C@@H](CCC(=O)O)C(=O)N[C@@H](Cc1ccccc1)C(=O)N[C@@H](CCCCN)C(=O)N[C@@H](CCCNC(=N)N)C(=O)N[C@H](C(=O)N[C@H](C(=O)N[C@@H](CCC(N)=O)C(=O)N[C@@H](CCCNC(=N)N)C(=O)N[C@H](C(=O)N[C@@H](CCCCN)C(=O)N[C@@H](CC(=O)O)C(=O)N[C@@H](Cc1ccccc1)C(=O)N[C@@H](CC(C)C)C(=O)N[C@@H](CCCNC(=N)N)C(=O)N[C@@H](CC(N)=O)C(=O)N[C@@H](CC(C)C)C(=O)N[C@H](C(=O)N1CCC[C@H]1C(=O)N[C@@H](CCCNC(=N)N)C(=O)N[C@H](C(=O)N[C@@H](CCC(=O)O)C(=O)N[C@@H](CO)C(=O)O)[C@@H](C)O)C(C)C)[C@@H](C)CC)C(C)C)[C@@H](C)CC` [LL-37] here?
The value was “minimal”.

And the “Effect on HBsAg level of post-treatment of infected cells only” value (HepG2.2.15-derived HBV; during 11 days of culture after washing)?
The value was “minimal”.

And the “HBV DNA in the culture medium of HBV-infected human primary hepatocytes” value (HBV genotype C)?
The value was “significant reductions”.

And the “HBeAg level in HBV-infected human primary hepatocytes” value (HBV genotype C)?
Its value is “significant reductions”.

What about the “Viability of treated HepG2.2.15 cells” value (HepG2.2.15 cells [1]) of the same compound?
Its value is 88.6%.

And the “HBsAg level in the culture medium of HepG2.2.15 cells compared to Ctn-treated cells” value (HepG2.2.15 cells [2])?
The value was “comparable”.

And the “Cell viability, percentage of Ctn-treated cells” value (HepG2-NTCP cells)?
Its value is 77.6 ± 6.9%.

For myrcludex-B, which “Improvement in clinical conditions and HBV DNA and HBsAg levels” value (HBV) is on record?
Its value is “limited improvement”.
